Measured values published in patent US9144241B2, “Synergistic pesticidal compositions and related methods” (Dow AgroSciences LLC, priority 2013, dated 2015).

System: diamondback moth, Plutella xylostella
Test: Diamondback moth bioassay on track-sprayed cabbage plants/leaf discs; synergy by Colby's equation
Type: in vivo
Settings: single active, second instar larvae, 400 L/Ha spray
Excerpt: The method described in Colby S. R., “Calculating Synergistic and Antagonistic Responses of Herbicide Combinations,” Weeds, 1967, 15, 20-22 was used to determine an existence of synergic effect between the acetyl CoA carboxylase inhibitor compound and the pesticide (I), (II), or any agriculturally acceptable salt thereof in the formulated pesticidal composition.
Three second instar diamondback moth, Plutella xylostella, were infested onto each leaf disc. […] The “Colby's Expected Action” was calculated using Colby's equation as discussed previously.
Three second instar diamondback moth, Plutella xylostella, were infested onto each leaf disc.
The percent control may be determined some time after treatment.

| Compound | % Control Three Days After Treatment (dose rate 0.000625 weight %) | % Control Three Days After Treatment (dose rate 0.0025 weight %) | % Control Three Days After Treatment (dose rate 0.0015625 weight %) | % Control Three Days After Treatment (dose rate 0.0015625 weight %, listed as spirotetramat) |
| --- | --- | --- | --- | --- |
| CCN(C(=O)CCSCCC(F)(F)F)c1cn(-c2cccnc2)nc1Cl [Compound I, N-(3-chloro-1-(pyridin-3-yl)-1H-pyrazol-4-yl)-N-ethyl-3-((3,3,3-trifluoropropyl)thio) propanamide] | 0% | no activity |  |  |
| CCN(C(=O)CC[S+]([O-])CCC(F)(F)F)c1cn(-c2cccnc2)nc1Cl (centres unmarked) [Compound II, N-(3-chloro-1-(pyridin-3-yl)-1H-pyrazol-4-yl)-N-ethyl-3-((3,3,3-trifluoropropyl)sulfinyl)propanamide] | 0% |  |  |  |
| CCOC(=O)OC1=C(c2cc(C)ccc2C)C(=O)N[C@]12CC[C@@H](OC)CC2 [Spirotetramat, cis-3-(2,5-dimethylphenyl)-8-methoxy-2-oxo-1-azaspiro[4.5]dec-3-en-4-yl ethylcarbonate, reference compound] |  |  | 0% | no activity |
